Test results from paper PMC7531004, “Discovery of gramicidin A analogues with altered activities by multidimensional screening of a one-bead-one-compound library” (Nature Communications, 2020).
Where a SMILES comes first, the peptide text is derived from it. [ ]: non-standard residue; d: D form. The star is where a group is joined. NHCH2CH2OH = OCCN*; For = O=C*

Columns and labels:
[1] = H+/Na+ transport assay of bead-derived peptides (one-point); format: biochemical; set-up: key: relative activity; mean of two control wells = 1.00; settings: bead-derived peptide solution, EYPC/EYPG LUVs;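 note: relative to parent gramicidin A activity set to 1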
Outline: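 H+/Na+ transport is monitored through pyranine fluorescence in freshly extruded LUVs after a 30-min room-temperature vortex with each library peptide at a single concentration. Signals are normalized to detergent (Triton X-100) and untreated controls.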

[2] = cell viability/%
Outline: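 P388 cells at 1 × 10^4 cells/mL (final) were exposed to library peptides (stocks diluted 250-fold in RPMI1640/10% FBS) for 92 h at 37 °C, 5% CO2. Viable cells were counted by WST-1/1-methoxy PMS (4 h), absorbance 415 nm, and expressed as cell viability (%).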

[3] = test system: Streptococcus pyogenes SSI-9; test: Antibacterial activity assay of bead-derived peptides (three concentrations); format: cell-based; set-up: key: +++: inhibition by the 640-fold diluted peptide solution; ++: inhibition by the 160-fold diluted solution; +: inhibition by the 40-fold diluted solution; -: no inhibition; settings: S. pyogenes, bead-derived peptide solution, three concentrations
Outline: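 Library peptide stock applied undiluted, 4-fold and 16-fold diluted in DMSO to S. pyogenes SSI-9 (2 × 10^5 CFU) in cation-adjusted Mueller Hinton broth with 5% laked horse blood. After 18 h at 37 °C, growth judged by visible cell precipitation.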

Structure (SMILES)	H+/Na+ transport activity normalized against the value of 1 (1.00) [1]	viability [2] [%]	antibacterial activity [3]
CC(C)C[C@@H](NC(=O)[C@H](C)NC(=O)CNC(=O)[C@@H](NC=O)C(C)C)C(=O)N[C@@H](C)C(=O)N[C@@H](C(=O)N[C@H](C(=O)N[C@@H](C(=O)N[C@@H](Cc1c[nH]c2ccccc12)C(=O)N[C@@H](C(=O)N[C@@H](Cc1c[nH]c2ccccc12)C(=O)N[C@@H](C(=O)N[C@@H](Cc1c[nH]c2ccccc12)C(=O)N[C@H](CC(C)C)C(=O)N[C@@H](Cc1c[nH]c2ccccc12)C(=O)NCCO)C(C)C)C(C)C)C(C)C)C(C)C)C(C)C [compound 5056] (For-VGA[dL]A[dV]V[dV]W[dV]W[dV]W[dL]W-NHCH2CH2OH)	1.01	100	+
CC(C)C[C@@H](NC(=O)[C@H](C)NC(=O)CNC(=O)[C@@H](NC=O)C(C)C)C(=O)N[C@@H](C)C(=O)N[C@@H](C(=O)N[C@H](C(=O)N[C@@H](C(=O)N[C@@H](Cc1c[nH]c2ccccc12)C(=O)N[C@@H](C(=O)N[C@@H](Cc1c[nH]c2ccccc12)C(=O)N[C@@H](C(=O)N[C@@H](Cc1c[nH]c2ccccc12)C(=O)N[C@@H](C(=O)N[C@@H](Cc1c[nH]c2ccccc12)C(=O)NCCO)C(C)C)C(C)C)C(C)C)C(C)C)C(C)C)[C@H](C)O [compound 5343] (For-VGA[dL]A[dT]V[dV]W[dV]W[dV]W[dV]W-NHCH2CH2OH)	1.33	100	-
CNC(=O)C[C@@H](NC(=O)[C@@H](NC(=O)[C@@H](CC(C)C)NC(=O)[C@H](C)NC(=O)[C@@H](CC(C)C)NC(=O)[C@H](C)NC(=O)CNC(=O)[C@@H](NC=O)C(C)C)C(C)C)C(=O)N[C@@H](Cc1c[nH]c2ccccc12)C(=O)N[C@@H](C(=O)N[C@@H](Cc1c[nH]c2ccccc12)C(=O)N[C@@H](C(=O)N[C@@H](Cc1c[nH]c2ccccc12)C(=O)N[C@@H](C(=O)N[C@@H](Cc1c[nH]c2ccccc12)C(=O)NCCO)C(C)C)C(C)C)C(C)C [compound 3931] (For-VGA[dL]A[dL]V[dD](NHMe)W[dV]W[dV]W[dV]W-NHCH2CH2OH)	1.16	100	-
CC(C)C[C@@H](NC(=O)[C@H](C)NC(=O)CNC(=O)[C@@H](NC=O)C(C)C)C(=O)N[C@@H](C)C(=O)N[C@H](CC(C)C)C(=O)N[C@H](C(=O)N[C@H](CC(C)C)C(=O)N[C@@H](Cc1c[nH]c2ccccc12)C(=O)N[C@@H](C(=O)N[C@@H](Cc1c[nH]c2ccccc12)C(=O)N[C@@H](C(=O)N[C@@H](Cc1c[nH]c2ccccc12)C(=O)N[C@@H](C(=O)N[C@@H](Cc1c[nH]c2ccccc12)C(=O)NCCO)[C@H](C)O)[C@H](C)O)C(C)C)C(C)C [compound 7253] (For-VGA[dL]A[dL]V[dL]W[dV]W[dT]W[dT]W-NHCH2CH2OH)	1.03	45.4	-
CC(C)C[C@@H](NC(=O)[C@H](C)NC(=O)CNC(=O)[C@@H](NC=O)C(C)C)C(=O)N[C@@H](C)C(=O)N[C@@H](C(=O)N[C@H](C(=O)N[C@H](CC(C)C)C(=O)N[C@@H](Cc1c[nH]c2ccccc12)C(=O)N[C@@H](C(=O)N[C@@H](Cc1c[nH]c2ccccc12)C(=O)N[C@H](CC(C)C)C(=O)N[C@@H](Cc1c[nH]c2ccccc12)C(=O)N[C@H](CC(C)C)C(=O)N[C@@H](Cc1c[nH]c2ccccc12)C(=O)NCCO)C(C)C)C(C)C)C(C)C [compound 7532] (For-VGA[dL]A[dV]V[dL]W[dV]W[dL]W[dL]W-NHCH2CH2OH)	1.03	3.9	+
CC(C)C[C@@H](NC(=O)[C@H](C)NC(=O)[C@H](NC(=O)[C@H](C)NC(=O)CNC(=O)[C@@H](NC=O)C(C)C)C(C)C)C(=O)N[C@H](C(=O)N[C@@H](C(=O)N[C@@H](Cc1c[nH]c2ccccc12)C(=O)N[C@@H](C(=O)N[C@@H](Cc1c[nH]c2ccccc12)C(=O)N[C@@H](C(=O)N[C@@H](Cc1c[nH]c2ccccc12)C(=O)N[C@@H](C(=O)N[C@@H](Cc1c[nH]c2ccccc12)C(=O)NCCO)C(C)C)[C@H](C)O)C(C)C)C(C)C)C(C)C [compound 4258] (For-VGA[dV]A[dL]V[dV]W[dV]W[dT]W[dV]W-NHCH2CH2OH)	1.00	85.9	-
CC(C)C[C@@H](NC(=O)[C@@H](NC(=O)[C@H](NC(=O)[C@H](C)NC(=O)[C@H](NC(=O)[C@H](C)NC(=O)CNC(=O)[C@@H](NC=O)C(C)C)[C@H](C)O)C(C)C)C(C)C)C(=O)N[C@@H](Cc1c[nH]c2ccccc12)C(=O)N[C@@H](C(=O)N[C@@H](Cc1c[nH]c2ccccc12)C(=O)N[C@@H](C(=O)N[C@@H](Cc1c[nH]c2ccccc12)C(=O)N[C@@H](C(=O)N[C@@H](Cc1c[nH]c2ccccc12)C(=O)NCCO)C(C)C)C(C)C)[C@H](C)O [compound 1156] (For-VGA[dT]A[dV]V[dL]W[dT]W[dV]W[dV]W-NHCH2CH2OH)	1.03	85.9	-
CC(C)C[C@@H](NC(=O)[C@H](C)NC(=O)CNC(=O)[C@@H](NC=O)C(C)C)C(=O)N[C@@H](C)C(=O)N[C@H](CC(C)C)C(=O)N[C@H](C(=O)N[C@H](CC(C)C)C(=O)N[C@@H](Cc1c[nH]c2ccccc12)C(=O)N[C@@H](C(=O)N[C@@H](Cc1c[nH]c2ccccc12)C(=O)N[C@@H](C(=O)N[C@@H](Cc1c[nH]c2ccccc12)C(=O)N[C@H](CC(C)C)C(=O)N[C@@H](Cc1c[nH]c2ccccc12)C(=O)NCCO)[C@H](C)O)C(C)C)C(C)C [compound 5736] (For-VGA[dL]A[dL]V[dL]W[dV]W[dT]W[dL]W-NHCH2CH2OH)	1.11	95.5	-
CC(C)C[C@@H](NC(=O)[C@H](C)NC(=O)[C@H](NC(=O)[C@H](C)NC(=O)CNC(=O)[C@@H](NC=O)C(C)C)[C@H](C)O)C(=O)N[C@H](C(=O)N[C@H](CC(C)C)C(=O)N[C@@H](Cc1c[nH]c2ccccc12)C(=O)N[C@@H](C(=O)N[C@@H](Cc1c[nH]c2ccccc12)C(=O)N[C@@H](C(=O)N[C@@H](Cc1c[nH]c2ccccc12)C(=O)N[C@@H](C(=O)N[C@@H](Cc1c[nH]c2ccccc12)C(=O)NCCO)C(C)C)C(C)C)C(C)C)C(C)C [compound 1842] (For-VGA[dT]A[dL]V[dL]W[dV]W[dV]W[dV]W-NHCH2CH2OH)	1.26	100	-
CNC(=O)C[C@@H](NC(=O)[C@H](C)NC(=O)CNC(=O)[C@@H](NC=O)C(C)C)C(=O)N[C@@H](C)C(=O)N[C@@H](C(=O)N[C@H](C(=O)N[C@@H](C(=O)N[C@@H](Cc1c[nH]c2ccccc12)C(=O)N[C@H](CC(C)C)C(=O)N[C@@H](Cc1c[nH]c2ccccc12)C(=O)N[C@H](CC(C)C)C(=O)N[C@@H](Cc1c[nH]c2ccccc12)C(=O)N[C@@H](C(=O)N[C@@H](Cc1c[nH]c2ccccc12)C(=O)NCCO)C(C)C)C(C)C)C(C)C)C(C)C [compound 11200] (For-VGA[dD](NHMe)A[dV]V[dV]W[dL]W[dL]W[dV]W-NHCH2CH2OH)	1.06	66	-
CC(C)C[C@@H](NC(=O)[C@H](Cc1c[nH]c2ccccc12)NC(=O)[C@H](NC(=O)[C@@H](NC(=O)[C@H](NC(=O)[C@H](C)NC(=O)[C@H](NC(=O)[C@H](C)NC(=O)CNC(=O)[C@@H](NC=O)C(C)C)[C@H](C)O)C(C)C)C(C)C)C(C)C)C(=O)N[C@@H](Cc1c[nH]c2ccccc12)C(=O)N[C@H](CC(C)C)C(=O)N[C@@H](Cc1c[nH]c2ccccc12)C(=O)N[C@@H](C(=O)N[C@@H](Cc1c[nH]c2ccccc12)C(=O)NCCO)C(C)C [compound 4452] (For-VGA[dT]A[dV]V[dV]W[dL]W[dL]W[dV]W-NHCH2CH2OH)	1.30	100	-
CC(C)C[C@@H](NC(=O)[C@H](Cc1c[nH]c2ccccc12)NC(=O)[C@H](NC(=O)[C@H](Cc1c[nH]c2ccccc12)NC(=O)[C@H](NC(=O)[C@@H](NC(=O)[C@H](NC(=O)[C@H](C)NC(=O)[C@H](NC(=O)[C@H](C)NC(=O)CNC(=O)[C@@H](NC=O)C(C)C)C(C)C)C(C)C)C(C)C)[C@H](C)O)C(C)C)C(=O)N[C@@H](Cc1c[nH]c2ccccc12)C(=O)N[C@@H](C(=O)N[C@@H](Cc1c[nH]c2ccccc12)C(=O)NCCO)C(C)C [compound 10506] (For-VGA[dV]A[dV]V[dT]W[dV]W[dL]W[dV]W-NHCH2CH2OH)	1.18	91.3	-
CC(C)C[C@@H](NC(=O)[C@H](C)NC(=O)CNC(=O)[C@@H](NC=O)C(C)C)C(=O)N[C@@H](C)C(=O)N[C@@H](C(=O)N[C@H](C(=O)N[C@H](CC(C)C)C(=O)N[C@@H](Cc1c[nH]c2ccccc12)C(=O)N[C@@H](C(=O)N[C@@H](Cc1c[nH]c2ccccc12)C(=O)N[C@@H](C(=O)N[C@@H](Cc1c[nH]c2ccccc12)C(=O)N[C@H](CC(C)C)C(=O)N[C@@H](Cc1c[nH]c2ccccc12)C(=O)NCCO)[C@H](C)O)C(C)C)C(C)C)C(C)C [compound 201] (For-VGA[dL]A[dV]V[dL]W[dV]W[dT]W[dL]W-NHCH2CH2OH)	1.06	100	-
